Data taken from PubChem BioAssay (NCI).
“And” between values parts separate entries of the source, which are not always exact repeats. Equal values may be shown once.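 Cultured in 96-well plates, cells were exposed to test compound for 48 hours across five concentrations. Here, GI50 denotes the concentration required for 50% inhibition of growth. At the TGI there is no net growth.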

Key:
Experiment in all cases: NCI anticancer screen, dose series, 48 h
[1] = system: CCRF-CEM leukemia
[2] = system: DMS 114 small cell lung
[3] = system: HCT-15 colon
[4] = system: K-562 leukemia
[5] = system: KM20L2 colon
[6] = system: M19-MEL melanoma
[7] = system: NCI-H226 lung
[8] = system: SF-268 CNS
[9] = system: SN12C renal
[10] = system: SNB-78 CNS
[11] = system: TK-10 renal
[12] = system: NCI-H522 lung

Row | Compound | TGI [1] | TGI [2] [µM] | TGI [3] | TGI [4] [µM] | TGI [5] [µM] | TGI [6] [µM] | TGI [7] | TGI [8] | TGI [9] | TGI [10] [µM] | TGI [11] | GI50 [1] | GI50 [3] | GI50 [7] | TGI [12] | GI50 [8] | GI50 [12]
1 | O=C1/C(=C\c2ccccc2)c2ccccc2N1/N=C\c1ccccc1 | > 100 µM | > 100 | > 100 µM | > 100 | > 100 | > 100 | > 100 µM | > 100 µM | > 100 µM | > 100 | > 100 µM |  |  |  |  |  | 
2 | c1ccc2c(CN3CCC(C4CCN(Cc5cccc6ccccc56)CC4)CC3)cccc2c1 | 65.3 µM and > 31.6 µM | 6.76 | 16.6 µM and > 100 µM |  | 10.3 | 20.7 | > 100 µM | 28.4 µM and > 100 µM | > 100 µM | 73.7 | 42.8 µM and > 31.6 µM | 13.7 µM and 4 µM | 2.95 µM and 8.46 µM | 31.7 µM and 96.8 µM | 26.3 µM and 23.4 µM | 8.99 µM and 78.7 µM | 
3 | O=S(=O)(N/N=C/c1ccc(Cl)cc1Cl)c1ccccc1 | > 100 µM | 89.9 | > 100 µM | > 100 | > 100 | > 100 | > 100 µM | > 100 µM | > 100 µM | > 100 | > 100 µM |  |  |  |  |  | 
4 | N#CC(C(=O)CCC(=O)Nc1ccc(Cl)c(Cl)c1)c1ccc(Cl)cc1 (stereo not given) |  | > 100 | > 100 µM | 90.5 | > 100 | > 100 | > 100 µM | > 100 µM | > 100 µM | > 100 | > 100 µM |  |  |  |  |  | 
5 | COC1(Cc2ccccc2)C(=O)c2ccccc2N1C(C)=O (stereo not given) | > 100 µM | > 100 | > 100 µM | > 100 | > 100 | > 100 |  |  | > 100 µM | > 100 |  |  |  |  |  |  | 
6 | COC(=O)C1=C(c2ccc(Cl)cc2)C(O)N=C(NN)N1 (stereo not given) | > 100 µM | > 100 | > 100 µM | > 100 |  | > 100 | > 100 µM | > 100 µM | > 100 µM | > 100 | > 100 µM |  |  |  | > 100 µM |  | 
7 | O=c1[nH]cnc2c1ncn2CCCCO | > 100 µM | > 100 | > 100 µM | > 100 | > 100 | > 100 | > 100 µM | > 100 µM | > 100 µM | > 100 | > 100 µM |  |  |  |  |  | 
8 | CC1=C(C(=O)Nc2ccccc2C)C(c2ccccc2C)C(C(=O)Nc2ccccc2C)=C(C)N1 |  | > 100 | 40.3 µM | 69.3 | 38.9 | 66.7 | 46.9 µM | 69.5 µM | 35.8 µM | > 100 | 64.4 µM |  |  |  | 29.9 µM |  | 
9 | NS(=O)(=O)c1ccc(NC(=O)c2cccc3c(Nc4ccc(S(N)(=O)=O)cc4)c4ccccc4nc23)cc1 | 87.6 µM | > 100 | > 100 µM | 82.1 | > 100 | > 100 |  | 65.3 µM | > 100 µM | > 100 | > 100 µM |  |  |  | 49.9 µM |  | 
10 | CC1CC(=O)c2c(ccc3c2C(=O)c2cccc(O)c2C3=O)C1 (stereo not given) | 7.97 µM | 25.4 | 22.9 µM | 10.6 |  | 4.96 | 34.3 µM | 31.1 µM |  | 45.7 |  |  |  |  | 12.7 µM |  | 
11 | CCOC(=O)c1cn(CC)c2cc3c(cc2c1=O)SCS3 | > 100 µM | > 100 | > 100 µM | > 100 | > 100 | > 100 |  | > 100 µM | > 100 µM |  | > 100 µM |  |  |  | > 100 µM |  | 
12 | CC(=O)O[C@H]1CC[C@@]2(C)C(=C/C(=N\[N+](=O)[O-])[C@H]3C4CCC([C@H](C)CCCC(C)C)[C@@]4(C)CCC32)C1 (stereo not given in full) |  | > 100 | > 100 µM | > 100 | > 100 | > 100 | > 100 µM | > 100 µM | > 100 µM |  | > 100 µM |  |  |  | > 100 µM |  | 
13 | COC(=O)c1nc(N)nc(C(=O)OC)c1C(=O)c1ccccc1 | > 100 µM | > 100 | > 100 µM | > 100 | > 100 | > 100 |  | > 100 µM | > 100 µM |  | > 100 µM |  |  |  | > 100 µM |  | 
14 | O=c1[nH]c2c(c3ccccc13)CCc1ccccc1-2 |  | > 100 | > 100 µM | > 100 | > 100 | > 100 | > 100 µM | > 100 µM | > 100 µM | > 100 | > 100 µM |  |  |  | > 100 µM |  | 
15 | NC(=O)N/N=C(\CCC(=O)N(Cc1ccccc1)Cc1ccccc1)CC(=O)c1ccc(F)cc1 | > 100 µM | > 100 | > 100 µM | > 100 | > 100 | > 100 | > 100 µM | > 100 µM | > 100 µM | > 100 | > 100 µM |  |  |  |  |  | 
16 | [O-][n+]1c2cc(CN3CCOCC3)c(CN3CCOCC3)cc2[n+]([O-])c2c(O)cccc21 | 4.02 µM |  | 8.14 µM |  | 15.4 | 8.83 | 30.9 µM | 3.6 µM | 13 µM | 21.9 | > 42 µM |  |  |  | 6.23 µM |  | 
17 | Cc1cccc(N=C2NC(=O)C(CC(=O)Nc3ccccc3Cl)S2)c1 (stereo not given) | > 100 µM | > 100 | > 100 µM | > 100 | > 100 | > 100 | > 100 µM | > 100 µM | > 100 µM | > 100 | > 100 µM |  |  |  |  |  | 
18 | COc1cc(/C=C\c2ccc(Cl)cc2)cc(OC)c1OC | 3.96 µM | > 91.8 | 14.4 µM | > 44.2 | 0.372 | > 100 | 6.84 µM | > 100 µM | > 100 µM |  | > 100 µM |  |  |  | 0.355 µM |  | 
19 | COc1cc2c3cc1Oc1c(OC)c(OC)cc4c1C(Cc1ccc(cc1)Oc1cc(ccc1O)CC3N(C)CC2)N(C)CC4 (stereo not given) | 58.3 µM and 24.7 µM | 24.8 | 23.2 µM and 14.3 µM |  | 24.7 | 24.2 | 40.6 µM and 37.5 µM | 44.6 µM and 24.7 µM | 61.3 µM and 30.6 µM | 64.6 | 45 µM and 25.9 µM | 6.96 µM and 2.78 µM | 8.8 µM and 3.19 µM |  | 14.2 µM and 20.5 µM |  | 1.57 µM and 4.86 µM
20 | COC(=O)C1C(/C=C/c2ccoc2)ON2CCC[C@@H]12 (stereo not given in full) |  | > 100 |  |  | > 100 | > 100 | > 100 µM | > 100 µM | > 100 µM | > 100 | > 100 µM |  |  |  | > 100 µM |  | 
